Reference: ChEMBL document CHEMBL1201862, “PubChem BioAssay data set” (2004)
Active and inactive are the calls of the source.

Assays:
[1] = target: Eukaryotic translation initiation factor 4E (Mus musculus, UniProt P63073); test: eIF4E–eIF4G protein interaction inhibitors, dose response, biochemical, TR-FRET (AID 855); format: functional;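 note: potency for disrupting eIF4E binding to eIF4GI seen as loss of FRET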
[2] = target: T1, Cytochrome P450 2C9 (Homo sapiens, UniProt P11712)
[3] = target: T2, Heat shock factor protein 1 (Mus musculus, UniProt P38532); test: inhibition of MG132-induced HSE-luciferase signal, confirmation, cell-based, NIH3T3, luminescence, dose retest (AID 2382); format: functional;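 note: NIH3T3 fibroblasts with HSF1-driven luciferase reporter stressed by proteasome inhibitor MG132; luminescence from HSF1-driven luciferase expression after 8 hours of MG132 stress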
T2 sequence (P38532 whole entry): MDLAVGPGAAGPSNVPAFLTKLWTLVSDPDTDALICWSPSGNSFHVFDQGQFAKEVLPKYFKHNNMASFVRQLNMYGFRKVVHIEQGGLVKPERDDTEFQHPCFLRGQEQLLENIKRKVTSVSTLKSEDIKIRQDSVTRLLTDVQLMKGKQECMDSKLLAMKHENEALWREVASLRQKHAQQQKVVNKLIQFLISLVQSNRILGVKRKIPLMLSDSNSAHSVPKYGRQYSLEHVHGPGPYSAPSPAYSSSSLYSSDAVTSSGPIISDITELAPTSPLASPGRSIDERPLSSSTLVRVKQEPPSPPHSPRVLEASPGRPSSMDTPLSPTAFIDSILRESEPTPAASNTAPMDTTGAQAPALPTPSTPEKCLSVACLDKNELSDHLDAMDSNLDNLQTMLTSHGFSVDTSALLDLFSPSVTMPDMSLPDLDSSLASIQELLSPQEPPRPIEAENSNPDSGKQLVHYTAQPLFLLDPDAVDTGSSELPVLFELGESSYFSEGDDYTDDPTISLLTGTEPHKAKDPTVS

[4] = target: T3, High affinity choline transporter 1 (Homo sapiens, UniProt Q9GZV3); test: CHT inhibitors, dose response, cell-based, 5-point CRC, membrane potential dye (AID 504840); format: functional
T3 sequence (Q9GZV3 whole entry): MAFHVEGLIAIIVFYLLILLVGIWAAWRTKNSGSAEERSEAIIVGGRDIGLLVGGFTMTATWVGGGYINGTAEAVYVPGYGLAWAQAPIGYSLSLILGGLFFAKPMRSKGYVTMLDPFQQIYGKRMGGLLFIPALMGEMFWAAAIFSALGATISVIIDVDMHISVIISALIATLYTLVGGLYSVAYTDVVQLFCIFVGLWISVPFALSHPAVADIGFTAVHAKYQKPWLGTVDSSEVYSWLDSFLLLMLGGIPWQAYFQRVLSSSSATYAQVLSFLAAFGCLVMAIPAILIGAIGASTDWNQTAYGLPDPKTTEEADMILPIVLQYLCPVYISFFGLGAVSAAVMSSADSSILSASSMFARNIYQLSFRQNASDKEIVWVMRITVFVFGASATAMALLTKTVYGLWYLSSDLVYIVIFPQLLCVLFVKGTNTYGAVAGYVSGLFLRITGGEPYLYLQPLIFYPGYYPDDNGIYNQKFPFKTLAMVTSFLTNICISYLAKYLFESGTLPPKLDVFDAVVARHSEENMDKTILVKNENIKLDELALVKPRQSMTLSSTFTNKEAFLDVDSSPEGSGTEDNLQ

[5] = target: T4, Calpain-2 catalytic subunit (Sus scrofa, UniProt P43367); test: pig calpain II inhibitor potency, dose response, biochemical, fluorogenic peptide substrate (AID 1420); format: functional
T4 sequence (P43367 whole entry): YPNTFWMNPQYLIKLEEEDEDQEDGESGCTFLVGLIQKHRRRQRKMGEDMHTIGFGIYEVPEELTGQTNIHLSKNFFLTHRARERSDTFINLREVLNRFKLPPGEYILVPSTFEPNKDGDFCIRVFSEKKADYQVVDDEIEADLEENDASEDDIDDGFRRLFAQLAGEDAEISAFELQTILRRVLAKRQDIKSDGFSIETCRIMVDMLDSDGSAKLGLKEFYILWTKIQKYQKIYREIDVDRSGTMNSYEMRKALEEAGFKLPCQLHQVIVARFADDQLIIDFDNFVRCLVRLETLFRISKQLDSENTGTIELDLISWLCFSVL

[6] = target: T1, Cytochrome P450 2C9; remark: listed apart in the source
[7] = target: Cytochrome P450 3A4 (Homo sapiens, UniProt P08684);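 note: CYP3A4 tested as one member of a cytochrome P450 panel screen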
[8] = target: T5, Streptokinase A (Streptococcus pyogenes serotype M1, UniProt P10520); test: S. pyogenes streptokinase expression inhibitors, potency, dose response, plasminogen activation absorbance, OD405 (AID 1914); format: functional, Streptococcus pyogenes M1 GAS;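 note: secreted streptokinase activity via plasminogen activation per viability signal from cell pellet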
T5 sequence (P10520 whole entry): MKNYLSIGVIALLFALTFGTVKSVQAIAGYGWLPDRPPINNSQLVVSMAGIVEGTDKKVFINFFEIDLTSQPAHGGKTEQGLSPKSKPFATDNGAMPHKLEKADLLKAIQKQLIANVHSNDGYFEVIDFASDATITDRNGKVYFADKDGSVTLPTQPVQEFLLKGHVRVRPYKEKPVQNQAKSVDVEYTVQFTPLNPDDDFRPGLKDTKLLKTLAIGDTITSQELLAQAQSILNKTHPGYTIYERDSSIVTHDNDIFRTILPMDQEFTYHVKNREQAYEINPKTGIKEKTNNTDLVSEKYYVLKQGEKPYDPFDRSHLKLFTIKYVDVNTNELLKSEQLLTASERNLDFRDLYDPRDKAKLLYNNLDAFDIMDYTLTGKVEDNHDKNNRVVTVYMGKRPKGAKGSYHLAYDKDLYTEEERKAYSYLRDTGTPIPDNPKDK

[9] = tested on: Streptococcus sp. 'group A'; test: growth inhibition of control SK(-) GAS strain, dose response, counter-screen for streptokinase expression inhibitor project, luminescence, kanamycin, BacTiterGlo, confirmation (AID 1900); format: functional, organism-based
[10] = tested on: Streptococcus; test: Group A Streptococcus viability loss, dose response, counter-screen for streptokinase expression inhibitor project, luminescence, BacTiterGlo (AID 1915); format: functional, organism-based;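 note: potency for reduction of bacterial viability or growth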
[11] = target: T6, Cytochrome P450 1A2 (Homo sapiens, UniProt P05177);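 note: PubChem cytochrome P450 panel assay, CYP1A2 panel member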
T6 sequence (P05177 whole entry): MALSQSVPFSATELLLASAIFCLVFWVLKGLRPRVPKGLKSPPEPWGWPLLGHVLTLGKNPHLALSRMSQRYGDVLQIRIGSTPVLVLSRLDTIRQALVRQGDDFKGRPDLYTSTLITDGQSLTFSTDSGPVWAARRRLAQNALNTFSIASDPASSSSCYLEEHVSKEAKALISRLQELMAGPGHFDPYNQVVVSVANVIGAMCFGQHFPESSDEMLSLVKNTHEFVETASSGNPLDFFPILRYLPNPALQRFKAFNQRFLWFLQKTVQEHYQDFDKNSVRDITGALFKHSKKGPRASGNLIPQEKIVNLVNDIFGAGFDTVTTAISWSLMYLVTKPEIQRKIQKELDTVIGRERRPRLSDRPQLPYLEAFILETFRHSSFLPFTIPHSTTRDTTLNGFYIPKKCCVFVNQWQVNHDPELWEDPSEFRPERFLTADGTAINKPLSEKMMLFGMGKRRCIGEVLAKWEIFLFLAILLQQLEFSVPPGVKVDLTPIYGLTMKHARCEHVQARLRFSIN

[12] = target: T7, Corticotropin-releasing factor receptor 2/Corticotropin-releasing factor-binding protein (Homo sapiens, UniProt P24387+Q13324); test: Dose Response confirmation of uHTS hits for small molecule antagonists of the CRF-binding protein and CRF-R2 receptor complex.; format: functional; conditions: read-out: IC50_Mean
T7 sequence (Q13324 whole entry): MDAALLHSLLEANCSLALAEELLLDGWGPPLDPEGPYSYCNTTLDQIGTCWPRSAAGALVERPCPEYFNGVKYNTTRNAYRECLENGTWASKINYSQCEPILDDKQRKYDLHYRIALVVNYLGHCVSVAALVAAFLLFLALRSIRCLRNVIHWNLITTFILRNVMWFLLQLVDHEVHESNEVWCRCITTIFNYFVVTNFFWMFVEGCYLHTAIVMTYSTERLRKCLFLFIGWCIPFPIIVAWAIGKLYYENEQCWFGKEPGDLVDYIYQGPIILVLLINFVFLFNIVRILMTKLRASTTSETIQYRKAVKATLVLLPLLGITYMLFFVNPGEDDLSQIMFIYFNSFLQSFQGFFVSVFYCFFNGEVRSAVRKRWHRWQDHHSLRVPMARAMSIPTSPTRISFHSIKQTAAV
T7 sequence (P24387 whole entry): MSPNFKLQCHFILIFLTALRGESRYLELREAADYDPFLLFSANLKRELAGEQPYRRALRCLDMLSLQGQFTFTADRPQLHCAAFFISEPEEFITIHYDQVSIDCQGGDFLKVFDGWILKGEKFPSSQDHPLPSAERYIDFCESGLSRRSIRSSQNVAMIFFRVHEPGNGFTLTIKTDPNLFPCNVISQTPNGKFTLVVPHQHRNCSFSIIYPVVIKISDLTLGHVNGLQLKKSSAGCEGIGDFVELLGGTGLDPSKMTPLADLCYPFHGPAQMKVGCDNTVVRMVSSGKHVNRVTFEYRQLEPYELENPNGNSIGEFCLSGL

[13] = target: T7, Corticotropin-releasing factor receptor 2/Corticotropin-releasing factor-binding protein; test: activators of CRF receptor 2 with binding protein – uHTS hits, confirmation (AID 602473); format: functional; conditions: read-out: EC50_Mean
[14] = target: Induced myeloid leukemia cell differentiation protein Mcl-1 (Homo sapiens, UniProt Q07820); format: functional
[15] = inhibitors of intracellular T. cruzi replication, confirmation, NIH3T3 host cells, beta-gal luminescence (AID 2044); format: functional, cell-based;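 note: intracellular parasites grown in NIH/3T3 mouse fibroblasts as host cells; luminescent beta-galactosidase reporter signal from transgenic T. cruzi replicating inside host cells; inhibitors lower the luminescence signal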
[16] = cytotoxicity toward NIH3T3 fibroblasts, dose response, counter-screen, cell-based, ATP luminescence, mouse fibroblasts (AID 2010); format: functional;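 note: cells exposed to compound for about 90 hours before reading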

Sequence of Induced myeloid leukemia cell differentiation protein Mcl-1 (Q07820 whole entry): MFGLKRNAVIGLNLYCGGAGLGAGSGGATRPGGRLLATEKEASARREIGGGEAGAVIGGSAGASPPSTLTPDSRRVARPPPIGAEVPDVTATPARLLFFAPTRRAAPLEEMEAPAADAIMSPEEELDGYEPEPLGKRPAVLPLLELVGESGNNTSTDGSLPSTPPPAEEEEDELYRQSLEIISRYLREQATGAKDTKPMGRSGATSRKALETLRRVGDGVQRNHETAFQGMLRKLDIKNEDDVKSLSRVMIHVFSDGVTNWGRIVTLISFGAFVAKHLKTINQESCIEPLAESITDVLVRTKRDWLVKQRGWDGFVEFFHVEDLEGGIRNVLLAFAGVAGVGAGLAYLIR
Sequence of Eukaryotic translation initiation factor 4E (P63073 whole entry): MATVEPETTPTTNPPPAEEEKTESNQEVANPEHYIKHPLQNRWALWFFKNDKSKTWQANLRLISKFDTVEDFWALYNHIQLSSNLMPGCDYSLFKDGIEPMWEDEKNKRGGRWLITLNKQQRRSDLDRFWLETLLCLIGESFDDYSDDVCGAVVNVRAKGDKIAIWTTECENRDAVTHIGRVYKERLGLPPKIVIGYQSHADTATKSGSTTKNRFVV
T1 sequence (P11712 whole entry): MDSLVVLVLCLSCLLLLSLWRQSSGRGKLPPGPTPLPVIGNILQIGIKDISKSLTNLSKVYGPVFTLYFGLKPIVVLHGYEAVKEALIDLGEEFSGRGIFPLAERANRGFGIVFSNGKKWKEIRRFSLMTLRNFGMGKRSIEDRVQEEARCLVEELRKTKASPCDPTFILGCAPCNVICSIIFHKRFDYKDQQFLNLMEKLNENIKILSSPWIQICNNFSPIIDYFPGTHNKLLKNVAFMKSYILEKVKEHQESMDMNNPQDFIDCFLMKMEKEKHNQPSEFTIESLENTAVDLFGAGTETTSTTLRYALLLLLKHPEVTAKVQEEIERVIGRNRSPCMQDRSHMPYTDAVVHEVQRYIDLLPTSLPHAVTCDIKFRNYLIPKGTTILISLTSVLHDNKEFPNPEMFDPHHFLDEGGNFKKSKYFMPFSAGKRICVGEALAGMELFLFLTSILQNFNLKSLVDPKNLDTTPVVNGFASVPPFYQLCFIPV
Sequence of Cytochrome P450 3A4 (P08684 whole entry): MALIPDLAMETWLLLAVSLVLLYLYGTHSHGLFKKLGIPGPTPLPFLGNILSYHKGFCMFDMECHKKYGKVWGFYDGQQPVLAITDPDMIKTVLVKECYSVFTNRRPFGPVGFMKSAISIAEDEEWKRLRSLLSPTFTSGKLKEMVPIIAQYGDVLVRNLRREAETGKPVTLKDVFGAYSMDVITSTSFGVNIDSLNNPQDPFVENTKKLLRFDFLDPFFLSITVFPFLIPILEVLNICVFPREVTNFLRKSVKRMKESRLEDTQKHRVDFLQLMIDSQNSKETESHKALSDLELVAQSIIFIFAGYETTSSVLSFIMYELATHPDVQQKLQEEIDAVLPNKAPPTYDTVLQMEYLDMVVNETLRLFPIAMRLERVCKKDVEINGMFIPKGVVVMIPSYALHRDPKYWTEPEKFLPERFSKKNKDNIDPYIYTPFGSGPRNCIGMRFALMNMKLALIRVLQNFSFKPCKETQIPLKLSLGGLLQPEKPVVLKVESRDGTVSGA

## O=C(CN1C(=O)S/C(=C\c2ccc(Cl)cc2)C1=O)NNC(=O)c1ccccc1O
[1]
  IC50: > 64 µM (inactive)

## CC(C)C(NC(=O)C12CC3CC(CC(C3)C1)C2)C(=O)NC1=NCCS1 (stereo not drawn)
[2]
  AC50: 25.1 µM (inconclusive)
[3]
  EC50: > 195 µM (not active)
[1]
  IC50: > 64 µM (inactive)

## COc1ccccc1CCC(=O)OCC(=O)c1c(N)n(CC(C)C)c(=O)n(C)c1=O
[4]
  IC50: 14.8 µM (active)

## CCCC(=O)NCc1ccccc1Cl
[5]
  IC50: 36.3 µM (not active)

## COc1ccc([N+](=O)[O-])cc1NC(=O)CC(C)c1ccccc1 (stereo not drawn)
[6]
  AC50: inconclusive

## Cc1ccc(C2=NNC(=O)C(c3c[nH]c4ccccc34)C2)cc1 (stereo not drawn)
[5]
  IC50: 46.4 µM (not active)

## COc1ccc(OC)c(Nc2ncnc3sc(-c4ccccc4)cc23)c1
[1]
  IC50: > 64 µM (inactive)

## FC(F)(F)c1cnc(/C=C/Nc2ccccc2Cl)c(Cl)c1
[7]
  AC50: 31.6 µM (inconclusive)
[6]
  AC50: inconclusive

## CC1CCCCC1NC(=O)CCn1ccc2cc(S(=O)(=O)N3CCCC3)ccc21 (stereo not drawn)
[8]
  EC50: > 150 µM (not active)
[9]
  EC50: > 150 µM (not active)
[10]
  EC50: > 150 µM (not active)
[4]
  IC50: 17 µM (active)

## Cc1ccc(N(CC(=O)NC2CCCC2)C(=O)c2ccc(C)s2)cc1
[5]
  IC50: > 50 µM (not active)

## CC(C)CC(c1nnnn1C1CCCC1)N1CCC(C(N)=O)CC1 (stereo not drawn)
[5]
  IC50: > 50 µM (not active)

## O=C1CSC(c2ccccc2F)N1c1cc(Cl)ccc1O (stereo not drawn)
[11]
  AC50: 39.8 µM (inconclusive)
[12]
  IC50: > 47.1 µM (inactive)
[6]
  AC50: inconclusive
[13]
  EC50: > 53 µM (inactive)

## Cn1c(N)c(C(=O)COC(=O)C2CCCCC2)c(=O)n(C)c1=O
[5]
  IC50: 6.73 µM (active)

## COc1ccc2nc(NC(=O)Nc3cccc4ccccc34)sc2c1
[14]
  IC50: 5.86 µM (not active)

## COc1ccccc1CNc1cc(-c2ccccc2OC)ncn1
[6]
  AC50: inconclusive

## Cc1cc(C(=O)OCC(=O)Nc2sc3c(c2C#N)CCC(C)C3)c2ccccc2n1 (stereo not drawn)
[14]
  IC50: 5.16 µM (active)

## O=C(C1CCN(S(=O)(=O)c2cccc3nsnc23)CC1)N1CCN(c2ccccc2F)CC1
[6]
  AC50: inconclusive

## COc1ccccc1NC(=O)C1CCCN(c2ncnc3c2nc2n3CCCCC2)C1 (stereo not drawn)
[4]
  IC50: 15.1 µM (active)

## c1ccc(CCc2nn3c(Cc4ccccc4)nnc3s2)cc1
[4]
  IC50: 27.5 µM (active)

## CCc1ccc(Nc2c([N+](=O)[O-])nn(-c3ccc4c(c3)OCCO4)[n+]2[O-])cc1
[15]
  EC50: 0.447 µM (active)
[16]
  EC50: > 60 µM (not active)
[4]
  IC50: 12.6 µM (active)

## O=C(Cn1c(=O)n(-c2ccccc2)c(=O)c2sccc21)N1CCCC1
[14]
  IC50: 11.6 µM (not active)

## CC(C)CC(=O)Nc1nnc(SCC(=O)Nc2ccc(F)cc2)s1
[5]
  IC50: > 50 µM (not active)

## CCNc1nc(NC(C)C)nc(Oc2ccc(=O)n(C)n2)n1
[1]
  IC50: 50 µM (inactive)

## Nc1ccccc1-c1nnc(SCc2ccccc2F)nc1O
[1]
  IC50: > 64 µM (inactive)

## CCC(=O)Nc1ccc(C(=O)N2CCN(C(=O)c3ccco3)CC2)cc1
[5]
  IC50: 25.3 µM (not active)

## CCCn1c2ccccc2c2cnn(CC(=O)NCCCN3CCCCC3)c(=O)c21
[4]
  IC50: 12.6 µM (active)

## O=C(O)c1cc(N/N=C/c2ccc(N3CCOCC3)s2)ccc1Cl
[14]
  IC50: 3.84 µM (active)
